Measured values published in ChEMBL document CHEMBL5653631, “A Potent and Selective ULK1 Inhibitor Suppresses Autophagy and Sensitizes Cancer Cells to Nutrient Stress” (iScience, 2018).
Values belong to the molecule of their own block, whether it stands above or below them.

Columns and labels:
[1] = target: T1, Serine/threonine-protein kinase 3 (Homo sapiens) (UniProt Q13188); test: Inhibition of human recombinant MST2 at 500 nM related to control ULK1
T1 sequence (whole entry): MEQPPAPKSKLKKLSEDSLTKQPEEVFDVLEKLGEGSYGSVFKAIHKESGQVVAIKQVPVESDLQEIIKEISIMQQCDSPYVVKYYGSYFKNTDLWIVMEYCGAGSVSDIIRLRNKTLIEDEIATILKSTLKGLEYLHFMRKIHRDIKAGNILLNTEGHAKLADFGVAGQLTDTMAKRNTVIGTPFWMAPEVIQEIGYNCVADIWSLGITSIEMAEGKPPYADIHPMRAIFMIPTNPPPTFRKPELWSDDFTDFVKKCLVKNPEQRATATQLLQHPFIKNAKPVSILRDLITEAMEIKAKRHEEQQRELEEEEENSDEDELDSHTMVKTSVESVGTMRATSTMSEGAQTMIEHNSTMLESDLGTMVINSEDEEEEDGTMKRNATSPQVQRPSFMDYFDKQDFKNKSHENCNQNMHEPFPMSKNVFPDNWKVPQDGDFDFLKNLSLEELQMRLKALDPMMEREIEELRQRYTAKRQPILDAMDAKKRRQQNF

[2] = target: Serine/threonine-protein kinase NIM1 (Homo sapiens) (UniProt Q8IY84); test: Inhibition of human recombinant NIM1 at 500 nM related to control ULK1
[3] = target: Tyrosine-protein kinase Tec (Homo sapiens) (UniProt P42680); test: Inhibition of human recombinant TEC at 500 nM in presence of ATP by radiometric assay relative to control
[4] = target: Serine/threonine-protein kinase WNK1 (Homo sapiens) (UniProt Q9H4A3); test: Inhibition of human recombinant Wnk1 at 500 nM related to control ULK1
Sequence of Serine/threonine-protein kinase WNK1 (Homo sapiens) (Q9H4A3 whole entry, looked up, canonical isoform): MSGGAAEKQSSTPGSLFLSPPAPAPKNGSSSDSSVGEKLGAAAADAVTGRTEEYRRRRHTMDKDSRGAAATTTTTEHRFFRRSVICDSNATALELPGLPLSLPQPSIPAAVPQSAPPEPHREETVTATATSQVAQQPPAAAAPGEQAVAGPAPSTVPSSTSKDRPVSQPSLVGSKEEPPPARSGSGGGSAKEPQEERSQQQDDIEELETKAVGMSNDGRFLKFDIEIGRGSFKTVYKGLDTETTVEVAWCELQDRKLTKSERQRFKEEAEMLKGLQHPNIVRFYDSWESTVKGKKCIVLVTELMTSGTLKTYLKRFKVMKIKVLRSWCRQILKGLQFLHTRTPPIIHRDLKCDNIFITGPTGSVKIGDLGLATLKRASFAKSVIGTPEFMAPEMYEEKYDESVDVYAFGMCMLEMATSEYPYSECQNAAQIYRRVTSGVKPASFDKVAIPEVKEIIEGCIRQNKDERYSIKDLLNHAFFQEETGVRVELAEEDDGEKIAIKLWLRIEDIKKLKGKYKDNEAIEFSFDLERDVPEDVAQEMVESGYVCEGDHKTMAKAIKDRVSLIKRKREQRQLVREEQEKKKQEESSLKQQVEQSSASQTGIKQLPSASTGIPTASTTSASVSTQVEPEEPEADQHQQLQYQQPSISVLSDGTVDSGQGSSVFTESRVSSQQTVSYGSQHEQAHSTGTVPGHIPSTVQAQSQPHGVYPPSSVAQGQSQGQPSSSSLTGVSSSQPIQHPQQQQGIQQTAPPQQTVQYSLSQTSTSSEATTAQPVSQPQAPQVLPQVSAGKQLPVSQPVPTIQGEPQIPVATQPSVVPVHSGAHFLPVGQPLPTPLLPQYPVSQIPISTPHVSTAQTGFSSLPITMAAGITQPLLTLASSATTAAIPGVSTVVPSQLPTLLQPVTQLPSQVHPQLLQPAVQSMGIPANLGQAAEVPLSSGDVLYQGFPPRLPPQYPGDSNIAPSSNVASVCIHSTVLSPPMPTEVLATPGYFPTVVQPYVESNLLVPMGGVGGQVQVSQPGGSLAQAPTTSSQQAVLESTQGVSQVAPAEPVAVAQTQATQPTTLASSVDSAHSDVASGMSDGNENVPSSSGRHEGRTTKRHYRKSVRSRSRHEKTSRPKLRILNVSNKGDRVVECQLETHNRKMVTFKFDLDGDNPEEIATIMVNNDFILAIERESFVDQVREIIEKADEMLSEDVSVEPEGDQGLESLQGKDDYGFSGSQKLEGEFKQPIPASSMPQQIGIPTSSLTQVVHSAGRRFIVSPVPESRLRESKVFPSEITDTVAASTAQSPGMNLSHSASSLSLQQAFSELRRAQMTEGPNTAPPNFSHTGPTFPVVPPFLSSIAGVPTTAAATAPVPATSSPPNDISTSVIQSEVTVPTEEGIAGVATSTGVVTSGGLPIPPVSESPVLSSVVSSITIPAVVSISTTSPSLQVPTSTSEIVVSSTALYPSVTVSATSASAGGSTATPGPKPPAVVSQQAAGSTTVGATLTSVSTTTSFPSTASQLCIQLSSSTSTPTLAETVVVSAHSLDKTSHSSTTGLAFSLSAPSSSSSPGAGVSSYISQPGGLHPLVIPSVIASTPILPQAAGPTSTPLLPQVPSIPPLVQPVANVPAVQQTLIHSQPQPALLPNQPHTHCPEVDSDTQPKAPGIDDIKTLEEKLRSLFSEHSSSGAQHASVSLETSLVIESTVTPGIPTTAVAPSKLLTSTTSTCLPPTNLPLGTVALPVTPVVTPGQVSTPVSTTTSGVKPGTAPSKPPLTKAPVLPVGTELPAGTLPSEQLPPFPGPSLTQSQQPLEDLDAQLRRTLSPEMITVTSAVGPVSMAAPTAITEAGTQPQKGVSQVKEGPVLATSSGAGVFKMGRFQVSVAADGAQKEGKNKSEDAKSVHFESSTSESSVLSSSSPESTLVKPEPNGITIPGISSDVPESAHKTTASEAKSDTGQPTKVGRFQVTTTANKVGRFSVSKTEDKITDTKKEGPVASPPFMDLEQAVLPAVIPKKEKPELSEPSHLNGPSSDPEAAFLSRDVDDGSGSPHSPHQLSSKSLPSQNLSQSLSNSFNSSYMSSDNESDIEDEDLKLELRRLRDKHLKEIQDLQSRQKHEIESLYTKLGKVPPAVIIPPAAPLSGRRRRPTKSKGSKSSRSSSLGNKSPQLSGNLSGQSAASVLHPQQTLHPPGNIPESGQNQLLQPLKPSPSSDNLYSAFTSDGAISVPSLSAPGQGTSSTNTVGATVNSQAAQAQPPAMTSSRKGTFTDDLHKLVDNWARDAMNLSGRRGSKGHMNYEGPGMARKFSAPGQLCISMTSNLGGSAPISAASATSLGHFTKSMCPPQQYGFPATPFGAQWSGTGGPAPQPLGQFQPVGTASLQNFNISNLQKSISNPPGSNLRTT

[5] = target: T2, Phosphorylase b kinase gamma catalytic chain, liver/testis isoform (Homo sapiens) (UniProt P15735); test: Inhibition of human recombinant PHKg2 at 15 nM related to control ULK1
T2 sequence (whole entry): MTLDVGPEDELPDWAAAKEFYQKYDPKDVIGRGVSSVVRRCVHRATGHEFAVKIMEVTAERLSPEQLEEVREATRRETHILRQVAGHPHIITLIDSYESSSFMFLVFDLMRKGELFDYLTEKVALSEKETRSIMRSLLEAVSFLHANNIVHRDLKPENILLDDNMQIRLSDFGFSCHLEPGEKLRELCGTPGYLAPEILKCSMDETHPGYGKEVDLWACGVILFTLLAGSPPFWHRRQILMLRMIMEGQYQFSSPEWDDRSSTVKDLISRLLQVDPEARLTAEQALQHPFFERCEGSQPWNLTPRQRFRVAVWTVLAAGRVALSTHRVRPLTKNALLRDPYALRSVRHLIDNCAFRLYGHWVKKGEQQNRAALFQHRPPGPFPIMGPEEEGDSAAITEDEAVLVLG

[6] = target: T3, Serine/threonine-protein kinase tousled-like 1 (Homo sapiens) (UniProt Q9UKI8); test: Inhibition of human recombinant TLK1 at 15 nM in presence of ATP by radiometric assay relative to control
T3 sequence (whole entry): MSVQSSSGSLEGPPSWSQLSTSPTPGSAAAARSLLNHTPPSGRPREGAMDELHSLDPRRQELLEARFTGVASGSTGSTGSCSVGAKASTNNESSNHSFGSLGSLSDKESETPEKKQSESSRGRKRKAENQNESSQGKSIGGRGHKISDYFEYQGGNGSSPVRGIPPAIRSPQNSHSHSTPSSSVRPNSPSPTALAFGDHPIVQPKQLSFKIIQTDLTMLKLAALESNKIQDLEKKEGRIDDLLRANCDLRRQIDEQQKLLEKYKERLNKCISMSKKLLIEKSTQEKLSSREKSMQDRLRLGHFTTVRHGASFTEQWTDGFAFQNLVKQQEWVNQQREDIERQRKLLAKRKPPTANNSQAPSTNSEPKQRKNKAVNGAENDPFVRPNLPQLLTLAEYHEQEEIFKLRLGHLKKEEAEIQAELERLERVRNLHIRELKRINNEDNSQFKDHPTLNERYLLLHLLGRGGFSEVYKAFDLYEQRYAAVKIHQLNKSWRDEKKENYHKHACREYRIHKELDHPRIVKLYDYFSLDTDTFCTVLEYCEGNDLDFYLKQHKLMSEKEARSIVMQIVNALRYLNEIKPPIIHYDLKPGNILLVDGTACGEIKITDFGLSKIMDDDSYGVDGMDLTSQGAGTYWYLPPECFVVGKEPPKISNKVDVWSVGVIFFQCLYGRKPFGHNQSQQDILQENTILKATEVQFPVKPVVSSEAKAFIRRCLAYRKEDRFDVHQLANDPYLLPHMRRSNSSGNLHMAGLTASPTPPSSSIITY

[7] = target: Calcium/calmodulin-dependent protein kinase type II subunit gamma (Homo sapiens) (UniProt Q13555); test: Inhibition of human recombinant CaMK2g at 15 nM related to control ULK1
Sequence of Calcium/calmodulin-dependent protein kinase type II subunit gamma (Homo sapiens) (Q13555 whole entry): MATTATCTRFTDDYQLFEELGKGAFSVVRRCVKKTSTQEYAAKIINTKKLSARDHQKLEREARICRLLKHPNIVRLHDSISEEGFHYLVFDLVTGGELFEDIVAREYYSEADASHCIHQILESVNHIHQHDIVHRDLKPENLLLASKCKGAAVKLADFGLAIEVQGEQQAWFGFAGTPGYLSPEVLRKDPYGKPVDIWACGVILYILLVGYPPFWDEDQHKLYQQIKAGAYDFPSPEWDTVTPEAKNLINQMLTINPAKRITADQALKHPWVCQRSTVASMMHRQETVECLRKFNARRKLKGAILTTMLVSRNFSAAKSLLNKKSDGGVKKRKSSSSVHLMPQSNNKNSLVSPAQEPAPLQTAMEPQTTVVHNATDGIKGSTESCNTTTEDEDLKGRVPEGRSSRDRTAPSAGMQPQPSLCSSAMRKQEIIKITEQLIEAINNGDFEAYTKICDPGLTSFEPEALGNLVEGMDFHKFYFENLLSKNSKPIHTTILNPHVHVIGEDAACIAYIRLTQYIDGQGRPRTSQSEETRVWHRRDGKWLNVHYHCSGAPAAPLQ

[8] = target: Tyrosine-protein kinase Fgr (Homo sapiens) (UniProt P09769); test: Inhibition of human recombinant FGR at 15 nM in presence of ATP by radiometric assay relative to control
Sequence of Tyrosine-protein kinase Fgr (Homo sapiens) (P09769 2-529 limits assumed): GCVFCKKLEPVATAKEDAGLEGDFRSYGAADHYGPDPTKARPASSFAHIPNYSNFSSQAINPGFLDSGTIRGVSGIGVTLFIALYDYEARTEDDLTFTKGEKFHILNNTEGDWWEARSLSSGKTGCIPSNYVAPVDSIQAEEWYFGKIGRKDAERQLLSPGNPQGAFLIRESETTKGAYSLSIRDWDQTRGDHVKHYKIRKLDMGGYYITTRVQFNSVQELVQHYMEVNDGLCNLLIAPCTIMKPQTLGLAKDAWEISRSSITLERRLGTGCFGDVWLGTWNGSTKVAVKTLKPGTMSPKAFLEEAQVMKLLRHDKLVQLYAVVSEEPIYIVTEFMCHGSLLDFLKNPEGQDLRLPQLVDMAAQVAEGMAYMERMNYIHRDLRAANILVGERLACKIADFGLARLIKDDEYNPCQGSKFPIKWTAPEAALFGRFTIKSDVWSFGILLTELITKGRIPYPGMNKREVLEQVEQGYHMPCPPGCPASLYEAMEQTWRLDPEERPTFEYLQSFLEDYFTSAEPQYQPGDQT

[9] = target: Serine/threonine-protein kinase 4 (MST1/STK4) (Homo sapiens) (UniProt Q13043); test: Inhibition of human recombinant MST1 at 15 nM in presence of ATP by radiometric assay relative to control
[10] = target: Protein kinase C iota type (Homo sapiens) (UniProt P41743); test: Inhibition of human recombinant PKCi at 15 nM related to control ULK1
[11] = target: Non-receptor tyrosine-protein kinase TYK2 (Homo sapiens) (UniProt P29597); test: Inhibition of human recombinant TYK2 at 15 nM in presence of ATP by radiometric assay relative to control
[12] = target: Platelet-derived growth factor receptor beta (Homo sapiens) (UniProt P09619); test: Inhibition of human recombinant PDGFRb at 40 nM in presence of ATP by radiometric assay relative to control
Sequence of Platelet-derived growth factor receptor beta (Homo sapiens) (P09619 whole entry): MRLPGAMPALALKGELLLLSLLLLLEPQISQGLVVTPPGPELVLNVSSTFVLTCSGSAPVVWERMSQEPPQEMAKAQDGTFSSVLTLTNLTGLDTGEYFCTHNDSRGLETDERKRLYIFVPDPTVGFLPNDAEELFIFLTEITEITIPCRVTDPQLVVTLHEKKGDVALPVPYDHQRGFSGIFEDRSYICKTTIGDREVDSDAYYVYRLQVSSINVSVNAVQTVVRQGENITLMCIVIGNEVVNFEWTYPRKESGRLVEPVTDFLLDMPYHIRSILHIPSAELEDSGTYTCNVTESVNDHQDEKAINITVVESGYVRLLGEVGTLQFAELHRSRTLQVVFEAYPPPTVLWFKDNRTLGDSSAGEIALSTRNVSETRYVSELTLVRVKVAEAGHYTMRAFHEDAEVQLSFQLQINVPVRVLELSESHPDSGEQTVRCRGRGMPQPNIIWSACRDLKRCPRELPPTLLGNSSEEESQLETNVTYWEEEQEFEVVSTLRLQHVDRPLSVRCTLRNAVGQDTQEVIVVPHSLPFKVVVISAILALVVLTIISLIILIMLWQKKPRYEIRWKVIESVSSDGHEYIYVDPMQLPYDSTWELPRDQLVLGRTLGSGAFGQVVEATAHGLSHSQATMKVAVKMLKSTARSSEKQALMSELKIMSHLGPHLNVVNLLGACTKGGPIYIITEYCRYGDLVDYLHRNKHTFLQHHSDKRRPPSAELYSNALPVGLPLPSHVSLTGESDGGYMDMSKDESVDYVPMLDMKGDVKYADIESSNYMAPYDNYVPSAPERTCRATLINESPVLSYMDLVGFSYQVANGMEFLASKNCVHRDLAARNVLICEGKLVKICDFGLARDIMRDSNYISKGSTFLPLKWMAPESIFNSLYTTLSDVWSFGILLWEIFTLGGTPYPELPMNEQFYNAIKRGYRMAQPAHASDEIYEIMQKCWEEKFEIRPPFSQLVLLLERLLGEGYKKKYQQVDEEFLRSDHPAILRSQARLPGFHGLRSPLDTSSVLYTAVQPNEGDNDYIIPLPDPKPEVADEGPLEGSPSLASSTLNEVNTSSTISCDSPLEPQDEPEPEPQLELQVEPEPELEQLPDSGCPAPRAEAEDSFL

[13] = target: Death-associated protein kinase 3 (Homo sapiens) (UniProt O43293); test: Inhibition of human recombinant DAPK3 at 40 nM in presence of ATP by radiometric assay relative to control
Sequence of Death-associated protein kinase 3 (Homo sapiens) (O43293 whole entry, looked up): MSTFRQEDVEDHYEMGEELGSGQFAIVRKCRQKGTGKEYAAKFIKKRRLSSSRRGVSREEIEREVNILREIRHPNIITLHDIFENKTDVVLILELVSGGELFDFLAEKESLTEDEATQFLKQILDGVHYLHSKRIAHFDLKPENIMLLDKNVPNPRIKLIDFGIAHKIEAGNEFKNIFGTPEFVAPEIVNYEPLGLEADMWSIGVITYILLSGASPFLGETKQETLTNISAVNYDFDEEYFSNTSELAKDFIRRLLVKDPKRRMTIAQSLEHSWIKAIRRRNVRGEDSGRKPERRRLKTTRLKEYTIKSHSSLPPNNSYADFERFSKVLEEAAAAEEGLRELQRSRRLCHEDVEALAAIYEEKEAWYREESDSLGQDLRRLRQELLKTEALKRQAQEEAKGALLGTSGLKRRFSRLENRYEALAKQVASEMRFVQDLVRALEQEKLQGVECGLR

[14] = target: SRSF protein kinase 2 (Homo sapiens) (UniProt P78362); test: Inhibition of human recombinant SRPK2 at 40 nM related to control ULK1

- fold change (FC) [1]: 0
- fold change (FC) [2]: 0
- inhibition [3]: 2%
- fold change (FC) [4]: 0
SMILES: CNC(=O)c1ccccc1Oc1nc(Nc2cc(OC)c(OC)c(OC)c2)ncc1Br

- fold change (FC) [5]: 0.1
- inhibition [6]: 0%
- fold change (FC) [7]: 0.25
- inhibition [8]: 43%
- inhibition [9]: 3%
- fold change (FC) [10]: 0.05
- inhibition [11]: 2%
SMILES: CC(C)[C@H](NC(=O)c1cc(-c2cnn3cc(-c4ccc(OCCN5CCCCC5)cc4)cnc23)cs1)C(F)(F)F

- inhibition [12]: 5%
- fold change (FC) [14]: 0.01
SMILES: O=C(N[C@@H](C1CC1)C(F)(F)F)c1cc(-c2cnn3cc(-c4ccc(F)cc4)cnc23)cs1
- inhibition [13]: 8%
